Measurements published in patent US8586020B2, “Poly(organophosphazene) composition for biomaterials” (Korea Institute of Science and Technology, priority 2011, dated 2013).

Legend:
[1] = pH 7.4

Row | Substance | Max. Gelling Temp. [1] [°C] | cell viability (MTT) (NIH3T3 cells)
1 | Poly[(isoleucineethylester)(aminomethoxy polyethyleneglycol550)(cysteamine)phosphazene] [Example 21] | 38 | such a high viability as the cell alone
2 | Poly[(isoleucineethylester)(aminomethoxy polyethyleneglycol550)(cysteamine)phosphazene] [Example 22] | 42 | such a high viability as the cell alone
3 | Poly[(isoleucineethylester)(aminomethoxy polyethyleneglycol550)(tyramine)phosphazene] [Example 24] | 34 | –
